US9447119B2, “Chemical compound for inhibiting the growth and proliferation of human liver cancer cells HepG2 and method for synthesizing it” (priority 2015, dated 2016)
Converted amounts (≈) assume the structure as drawn.

Assays:
[1] = tested on: HepG2 (Hepatocellular carcinoma cells); experiment: Cytotoxicity evaluation using viability assay (crystal violet) against HepG2 cell line; format: cell-based, human; settings: 48 hours
[2] = tested on: HepG2 (Hepatocellular carcinoma cells); experiment: as above; format: cell-based, human; settings: for Viability %: 48 hours; for IC50: Homo sapiens, HepG2 cells, 48 hours incubation, crystal violet viability, read-out: inhibition concentration value (IC50) against HepG2
Text: HepG2 cells (human cell line of a well differentiated hepatocellular carcinoma isolated from a liver biopsy of a person) were obtained from the American Type Culture Collection (ATCC). The chemicals used were: Dimethyl sulfoxide (DMSO), crystal violet and trypan blue dye, purchased from Sigma, St. Louis, Mo., USA; DMEM, RPMI-1640, FBS, HEPES buffer solution, L-glutamine, gentamycin and 0.25% Trypsin-EDTA, purchased from BioWhittaker®, Lonza, Belgium; and Crystal violet stain (1%), composed of 0.5% (w/v) crystal violet and 50% methanol, made up to volume with ddH20 and filtered through a Whatmann No. I filter paper.
In the cytotoxicity assay, the cells were propagated in Dulbecco's modified Eagle's medium (DMEM) supplemented with 10% heat-inactivated fetal bovine serum, 1% L-glutamine, HEPES buffer and 50 μg/ml gentamycin. All cells were maintained at 37° C. in a humidified atmosphere with 5% C02 and were subcultured two times a week.
Cell toxicity was monitored by determining the effect of the test samples on cell morphology and cell viability.
For cytotoxicity assay, the cells were seeded in a 96-well plate at a cell concentration of 1×10^4 cells per well in 100 μl of growth medium. Fresh medium containing different concentrations of the test sample was added after 24 hours following seeding. Serial two-fold dilutions of the tested chemical compound were added to confluent cell monolayers dispensed into 96-well, flat-bottomed microtiter plates (Falcon, N.J., USA) using a multichannel pipette. The microtiter plates were incubated at 37° C. in a humidified incubator with 5% C02 for a period of 48 hours. Three wells were used for each concentration of the test sample. Control cells were incubated without test sample and with or without DMSO. The little percentage of DMSO present in the wells (maximal 0.1%) was found not to affect the experiment. After incubation of the cells for 24 hours at 37° C., various concentrations of sample (50, 25, 12.5, 6.25, 3.125 & 1.56 μg) were added, and the incubation was continued for 48 hours and viable cells yield was determined by a colorimetric method.
In brief, after the end of the incubation period, media were aspirated and the crystal violet solution (1%) was added to each well for at least 30 minutes. The stain was removed and the plates were rinsed using tap water until all excess stain was removed. Glacial acetic acid (30%) was then added to all wells and mixed thoroughly and then the absorbance of the plates was measured after being gently shaken on a Microplate reader (TECAN, Inc.), using a test wavelength of 490 nm. All results were corrected for background absorbance detected in wells without added stain. Treated samples were compared with the cell control in the absence of the tested compounds. All experiments were carried out in triplicate.
The cell cytotoxic effect of each tested compound was calculated according to the rapid colorimetric assay for cellular growth and survival: application to proliferation and cytotoxicity assay, published by T. Mosmann in the Journal of Immunology Methods, 1983, 65:55-63; and the antiviral activity of medicinal plants of Nilgriris, published by P. Vijayan et al. in the Indian Journal of Medical Research, 2004, 120: 24-29.

melting point [°C] | Compound | Viability % ([1]; HepG2, sample conc. 0.39 μg) [%] | Viability % ([1]; HepG2, sample conc. 0.78 μg) [%] | Viability % ([2]; HepG2, sample conc. 1.56 μg) [%] | Viability % ([2]; HepG2, sample conc. 3.125 μg) [%] | Viability % ([2]; HepG2, sample conc. 6.25 μg) [%] | Viability % ([2]; HepG2, sample conc. 12.5 μg) [%] | Viability % ([2]; HepG2, sample conc. 25 μg) [%] | Viability % ([2]; HepG2, sample conc. 50 μg) [%] | IC50 [2] [µg/mL]
> 300 | O=c1c2c3c(sc2nc2sc(Nc4ccc([N+](=O)[O-])cc4)nn12)CCCCC3 [compound of the invention, 2-((4-Nitrophenyl)amino)-7,8,9,10-tetrahydrocyclohepta[4,5]thieno[2,3-d][1,3,4]thiadiazolo[3,2-a]pyrimidin-11(6H)-one] | 64.21 | 45.74 | 32.86 | 23.17 | 13.92 | 10.04 | 7.52 | 3.79 | 0.7 (≈ 1.69 µM)
– | COc1cccc2c1C(=O)c1c(O)c3c(c(O)c1C2=O)C[C@@](O)(C(=O)CO)C[C@@H]3O[C@H]1C[C@H](N)[C@H](O)[C@H](C)O1 [Doxorubicin, reference compound] | – | 57.44 | 48.25 | 30.32 | 21.03 | 16.90 | 14.29 | 10.95 | 1.2 (≈ 2.21 µM)
